These results are taken from patent publication US20250290080A1, “METHODS TO PREVENT RAPID SILENCING OF GENES IN PLURIPOTENT STEM CELLS” (FUJIFILM Cellular Dynamics, Inc., priority 2021, published 2025).

In data set [1] the test system is silenced CpG-free AcGFP1 clones. Description: NaBut treatment of silenced CpG-free AcGFP1 clones, % GFP expression by flow cytometry. The format is cell-based. On the procedure: FIGS. 5A-5B: Silenced transgene be reactivated with NaBut treatment. A small number of cells were silenced in the CpG-free AcGPF1 cultures (<3% of cells, FIG. 3A). These silenced cells were single cell sorted and expanded to further investigate their silencing and research methods for overcoming the silencing. Two months after sorting for no GFP expression, silenced CpG-free AcGFP1 clones were treated with 1 mM, 0.5 mM, or 1 μM of NaBut. […] After a successful pilot experiment, the duration of NaBut treatment was increased to 46 days with NaBut treatment doses of 0.25 mM and 0.5 mM and the GFP expression levels were monitored over time by fluorescent microscopy and flow cytometry. The initial results were confirmed (FIGS. 5A and 5B, dark blue bar: day 8 of treatment).
However, after 5 months, a small percentage of cells were detected with no GFP expression (3%) even though the CpGs had been removed from AcGFP1. To investigate this population, clones were isolated by single cell sorting for no GFP expression. The cells were treated with sodium butyrate (NaBut), a histone deacetylase (HDAC) inhibitor capable of removing chromatin structure and inducing demethylation.

Data set [2] relates to iPSCs. Description: Fluorescent protein transgene expression over time in engineered iPSCs (PPP1R12C/AAVS1 locus). The format is cell-based. From the text:
FIGS. 1A-1D: ZsGreen expression driven by EEF1A1p is mottled in iPSCs. iPSCs 01278.103 (FIG. 1A, 1B) and 01279.107 (FIG. 1C, 1D) were engineered with EEF1A1p-ZsGreen at the PPP1R12C locus. Brightfield and Fluorescence (GFP) microscopy were used to capture the GFP expression in the cells 11 passages post-engineering (FIGS. 1A-1B) or 18 passages post-engineering (FIGS. 1C-1D).
The percent GFP expression in five clones targeted with EEF1A1p-CpG-free-AcGFP1 (FIG. 3A) and nine clones targeted with EEF1A1p-AcGFP1 (FIG. 3B) at the AAVS1 locus was monitored overtime.
FIGS. 4A-4C: Rapid silencing of AcGFP1 in iPSCs. Depiction of engineering iPSCs at the PPP1R12C locus (AAVS1 safe harbor) with three cassettes EEF1A1p-mRFP1+PGKp-Puro, EEF1A1p-AcGFP1 or EEF1A1p-CpG-Free AcGFP1. Noted within the figure are the engineered iPSC ID numbers for cell lines 8717 and 9650 which are used in further experiments throughout the document (FIG. 4A). […] After two months in culture, AcGFP1 engineered iPSCs were bulk sorted for AcGFP1 expression. Brightfield and Fluorescence (GFP) microscopy was used to capture the GFP expression in the cells 12 days post-sorting (FIG. 4B) or 23 days post-sorting (FIG. 4C).
The EEF1A1 promoter was used for expression of AcGFP1 in iPSCs at the PPP1R12C locus.

Data set [3] has as its system iPSC line 01279.107. Description: Luciferase expression during transient transfection of promoter-pGL3 plasmids (Dual-Luciferase Reporter Assay). The format is cell-based, human. Particulars: assayed one day later. From the text: Promoters cloned: The following promoters were identified as being likely candidates for constitutive expression in all cell types. Some were cloned from existing plasmids (CAG, PGK, UBC-version1, EEF1A1, ACTB). […] The new promoters include RPS19, UBA52, HSP90AB1, an enlarged region of UBC (version 2), UBB, RPSA, NACA, and COX8A. Sequences were cloned into the pGL3 plasmid vector (replacing the SV40 promoter between MluI and NcoI restriction sites) to enable a comparison of promoter strength when driving the luciferase reporter gene.
Luciferase expression during transient transfection: Transient transfection was performed of the promoter-pGL3 plasmids into iPSCs to determine the strength of expression. Using a 96wp format, 50 uL of E8 media+10 uM blebbistatin was added to each well. Each plasmid was assayed in triplicate by adding 16.5 uL of the following reagent preparation. One well of a 6wp of iPSC line 01279.107 was harvested using Accutase, resuspended in 3.5 mL E8 media+10 uM blebbistatin, and 50 uL was added to each well. One day later the cells were assayed using the Dual-Luciferase Reporter Assay System (Promega).
Expression values at or above the level of the PGK promoter were desired so RPS19, UBA52, HSP90AB1, and UBC were selected for further study.
On the technique in general: Reporter assays use an easily measured gene product as a stand-in for the process of interest.

The subject of data set [4] is iPSC-derived neuronal cells. Description: ZsGreen expression after neuronal differentiation protocol, day 21 flow cytometry. It counts as cell-based, human. Particulars: day 21 of differentiation. From the text:
(§1) Differentiation: In order to determine the stability of expression post-differentiation, the engineered lines were subjected to differentiation protocols to direct them toward either neuronal or cardiac cell types.
A general note: A flow cytometer gives signals particle by particle.

Data set [5] relates to iPSC-derived cardiac cells. Put plainly: ZsGreen expression after cardiac differentiation protocol, day 21 flow cytometry. Particulars: day 21 of differentiation. It counts as cell-based, human.
Text: as §1

Data set [6] relates to iPSC line 01279.107. Put plainly: ZsGreen expression in engineered iPSC lines in long-term culture, flow cytometry. It counts as cell-based, human. Particulars: for ZsGreen expression in iPSC over time: culture up to seven months, E8 media/vitronectin. From the text: ZsGreen Constructs Integrated at the AAVS1 Safe Harbor Locus: To examine longer term expression driven by the candidate promoters in a chromosomal context, they were cloned into plasmids controlling ZsGreen fluorescent protein and targeted to the AAVS1 safe harbor locus on chromosome 19 in human iPSC (plasmid design is shown below using the CAG promoter as an example). […] Correctly targeted heterozygous clones were expanded.
Genomic Loci Suitable for Tagging to Yield Constitutive Expression: In addition to promoter-driven expression from a safe harbor, specific genes expressed in most cell-types can be tagged with a reporter gene to give constitutive expression. The genes HSP90AB1, ACTB, CTNNB1, and MYL6 were chosen for evaluation and were tagged with ZsGreen and an F2A cleavage sequence via TALEN-mediated gene editing. Correctly targeted heterozygous clones were expanded.
ZsGreen expression in iPSC: Engineered iPSC lines expressing ZsGreen fluorescent protein were maintained in culture for up to seven months (E8 media/vitronectin coated plates) and periodically checked for green expression using flow cytometry on an Accuri C6 instrument (BD).

The test system of data set [7] is iPSC line 2.038. Put plainly: Drug resistance of iPSC line 2.038 transfected with WT PuroR vs. CpG-free PuroR plasmids. The format is cell-based. Conditions: cassette introduced into iPSCs by electroporation. From the text: The CpG-free PuroR cassette was introduced into iPSCs by electroporation.

Entries after “also recorded” stand apart in the source; their conditions may differ.

With `CCCC(=O)[O-].[Na+]` [NaBut, sodium butyrate], in data set [1] (0.25 mM and 0.5 mM NaBut, 46 days), the “effect on GFP expression levels over time” value is on record as “dose dependent effect”. The “reactivation of GFP expression” value in data set [1] (1 mM, 0.5 mM, or 1 μM NaBut, nine days, flow cytometry) is listed as “dose dependent reactivation; also recorded: dose-dependent reactivation”.

On to “AcGFP1: Aequorea coerulescens green fluorescence protein DNA sequence, SEQ ID NO:13 [reference compound]”, for which the “cells with no GFP expression (silenced)” value in data set [2] (CpG-free AcGFP1 cultures, after 5 months) came out at 3%. In addition, the “stability of fluorescent protein expression over time” value in data set [2] (EEF1A1 promoter, PPP1R12C (AAVS1) locus, iPSCs in culture) is given as “not maintained overtime; also recorded: did not retain consistent expression”.

For “HSP90AB1 promoter: HSP90AB1 promoter, SEQ ID NO:5”, the “Normalized luciferase (Firefly/Renilla ratio, normalized to EEF1A1=100%)” value in data set [3] is on record as approximately 75%.

In the case of “HSP90AB1del400 promoter: HSP90AB1 promoter with 417 bp deletion between two ClaI sites, SEQ ID NO:4”, the “ZsGreen fluorescence after neuronal differentiation” value in data set [4] is given as “many cells with diminishing fluorescence”. Moreover, the “ZsGreen expression after cardiac differentiation” value in data set [5] was “varying amounts of expression silencing”. Further, the “Normalized luciferase (Firefly/Renilla ratio, normalized to EEF1A1=100%)” value in data set [3] is “around 66%”. The “ZsGreen expression in iPSC over time” value in data set [6] is reported as “stable iPSC expression over four months”.

Regarding RPS19: RPS19 promoter, SEQ ID NO:2, the “ZsGreen fluorescence after neuronal differentiation” value in data set [4] was “tight and stable expression”. Also, the “ZsGreen expression after cardiac differentiation” value in data set [5] was “varying amounts of expression silencing”. Also, the “ZsGreen expression in iPSC over time” value in data set [6] was “stable iPSC expression over four months”. In addition, the “ZsGreen expression in iPSC at seven months” value in data set [6] (out to seven months in culture) was “some silencing”.

Regarding UBA52: UBA52 promoter, SEQ ID NO:3, in data set [4], the “ZsGreen fluorescence after neuronal differentiation” value was “tight and stable expression”. Also, the “ZsGreen expression after cardiac differentiation” value in data set [5] is “tight and stable expression”. Further, in data set [6], the “ZsGreen expression in iPSC over time” value was “stable iPSC expression over four months”.

B1: CpG-free PuroRv1: CpG-free puromycin resistance gene sequence, SEQ ID NO:15 (nucleic acid)
DNA: ATGACTGAATACAAACCAACTGTTAGACTGGCAACTAGAGATGATGTTCCAAGAGCAGTTAGAACCCTGGCTGCTGCATTTGCTGACTACCCTGCAACCAGACACACTGTGGACCCAGACAGACACATTGAAAGAGTGACTGAACTGCAGGAGCTGTTCCTGACCAGAGTGGGCCTGGACATTGGCAAAGTGTGGGTGGCAGATGATGGTGCTGCTGTGGCAGTGTGGACCACCCCTGAATCTGTTGAAGCTGGTGCAGTGTTTGCTGAGATTGGCCCAAGAATGGCAGAACTGTCTGGCAGCAGACTGGCAGCACAACAGCAGATGGAAGGTCTGCTGGCACCACACAGACCAAAAGAACCTGCTTGGTTCCTGGCAACTGTGGGTGTGAGCCCTGACCACCAGGGTAAGGGCCTGGGCTCTGCAGTGGTGCTGCCTGGTGTGGAAGCAGCTGAAAGAGCAGGTGTGCCTGCTTTCCTGGAGACCTCAGCTCCAAGAAACCTGCCTTTCTATGAAAGACTGGGCTTCACTGTGACTGCTGATGTGGAAGTGCCAGAAGGCCCAAGAACTTGGTGCATGACTAGAAAACCAGGTGCTTGATAATGA
modifications: misc_feature 1..606 Synthetic promotor sequence
As for B1, in data set [7], the drug resistance conferred result is given as “capable of conferring drug resistance”.

B2: PuroRv2: CpG-free puromycin resistance gene version 2, SEQ ID NO:16 (nucleic acid)
DNA: ATGACTGAATACAAACCAACTGTTAGACTGGCAACTAGAGATGATGTTCCAAGAGCAGTTAGAACCCTGGCTGCTGCATTTGCTGACTACCCTGCAACCAGACACACTGTGGACCCAGACAGACACATTGAAAGAGTGACTGAACTGCAGGAGCTGTTCCTGACCAGAGTGGGCCTGGACATTGGCAAAGTGTGGGTGGCAGATGATGGTGCTGCTGTGGCAGTGTGGACCACCCCTGAATCTGTTGAAGCTGGTGCAGTGTTTGCTGAGATTGGCCCAAGAATGGCAGAACTGTCTGGCAGCAGACTGGCAGCACAACAGCAGATGGAAGGTCTGCTGGCACCACACAGACCAAAAGAACCTGCTTGGTTCCTGGCAACTGTGGGTGTGAGCCCTGACCACCAGGGTAAGGGCCTGGGCTCTGCAGTGGTGCTGCCTGGTGTGGAAGCAGCTGAAAGAGCAGGTGTGCCTGCTTTCCTGGAGACCTCAGCTCCAAGAAACCTGCCTTTCTATGAAAGACTGGGCTTCACTGTGACTGCTGATGTGGAATGCCCAAAGGACAGAGCAACTTGGTGCATGACTAGAAAACCAGGTGCTTGATAATGA
modifications: misc_feature 1..606 Synthetic promotor sequence
As to B2, in data set [7], the drug resistance conferred result is given as “capable of conferring drug resistance”.
